Laboratory results published in patent publication US20120225889A1, “USE OF MACROCYCLIC LACTONE DERIVATIVES FOR THE TREATMENT OF INFLAMMATORY DISORDERS” (PIRAMAL LIFE SCIENCES LIMITED, priority 2010, published 2012).

What was measured:
cMyc = test: Gene expression profile using RTQ-PCR: cMyc; format: cell-based, human; settings: 3 μM
Method: (§1) The effect of the compound of example 7 was measured in stimulated untreated cells from the monocytic cell line (THP-1), human monocytes and synovial cells from rheumatoid arthritis patient. The effect of the compound in the THP-1 cell line was measured in terms of gene expression and was expressed as fold changes as compared to the cell stimulated control with no drug treatment.
(§2) THP-1 cells, human monocytes and synovial cells were treated with compound of example 7 or vehicle (0.5% DMSO). Total RNA isolation using a commercial RNA extraction kit (Qiagen Corporation, Germany) The first-strand cDNA was synthesized from total RNA using first strand cDNA synthesis kit from Invitrogen Corporation (California, USA). This was followed by real time quantitative polymerase chain reaction (RTQ PCR) using gene specific primers and standard thermal program of initial denaturation at 95° C. for 5 min and cycles of 95° C. for 10 seconds, followed by 60° C. for 30 seconds (Realplex PCR machine from Eppendorf, Germany). Quantitative measurement of products made during PCR cycles was normalized against a housekeeping gene (Actin) and was used to measure the gene expression as fold changes as compared to respective control.

IL-6 = test: Gene expression profile using RTQ-PCR: IL-6; format: cell-based, human; settings: 3 μM
Method: as §1, §2

p38 MAPK = biological target: T1, p38 MAPK (Homo sapiens, UniProt Q16539); test: p38 MAPK assay in anisomycin stimulated Jurkat T-cells (Western blot); format: cell-based; settings: 3 μM, phospho-p38 Western blot
T1 construct: endogenous in cells; host or cells: Jurkat T-cells (ATCC TIB-152, clone E6-1)
T1 sequence (Q16539 whole entry): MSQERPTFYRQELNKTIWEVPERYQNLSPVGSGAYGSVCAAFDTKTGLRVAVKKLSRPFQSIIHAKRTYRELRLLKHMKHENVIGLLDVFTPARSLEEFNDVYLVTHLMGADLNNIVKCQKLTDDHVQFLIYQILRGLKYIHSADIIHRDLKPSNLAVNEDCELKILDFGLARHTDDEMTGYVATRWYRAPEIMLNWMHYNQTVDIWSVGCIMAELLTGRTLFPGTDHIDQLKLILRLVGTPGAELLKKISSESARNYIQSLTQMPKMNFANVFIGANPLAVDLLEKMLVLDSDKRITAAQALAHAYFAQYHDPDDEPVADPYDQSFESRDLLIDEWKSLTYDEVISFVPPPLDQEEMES
Method: The method for identifying inhibitors of p38 MAPK was designed as in reference, Journal of Lipid Research, 40, 1911-1919, (1999), the disclosure of which is incorporated by reference for the teaching of the assay.
Human Jurkat T-cells (ATCC number: TIB-152, clone E6-1, USA) were cultured in culture medium (RPMI 1640 culture medium supplemented with 10% FBS, 100 U/mL penicillin and 100 μg/mL streptomycin) at 37° C., 5% CO2. Culture medium was changed every 2-3 days and always a day prior to the experiment. On the day of the experiment, Jurkat cells were pre-treated with vehicle or test compound at 3 μM, 10 times the IC50 value for IL-6 inhibition in human monocyte assay, for 1 h at 37° C. Subsequently, the cells were stimulated with anisomycin (10 μg/mL; Sigma, USA) for 30 min SB 203580 (1 PM; Sigma, USA) was used as a standard. The sample preparation of the test compound, anisomycin and SB 203580 is as follows: a stock solution (20 mM) of the test compound was prepared in DMSO. […]
Following the stimulation, cells were harvested, rapidly washed with ice-cold PBS and lysed with cold Cell Lytic buffer (Sigma, USA) supplemented with complete protease inhibitor cocktail (Roche, USA) and sodium orthovanadate (Sigma, USA). […] Aliquots of the resulting extracts were analyzed for their protein content using the Coomassie Plus Protein Assay Reagent (Pierce, USA) as per manufacturer's instructions. […]

TNF-α = test: Synovial tissue assay (spontaneous production): TNF-α; format: cell-based; settings: Homo sapiens, synovial tissue cells from rheumatoid arthritis patients, 16 h, read-out: IC50 of TNF-α inhibition
From the text: The ability of compounds of the present invention to inhibit spontaneous production of cytokines from freshly isolated human synovial tissue cells was designed as in reference, Lancet, 29, 244-247, (1989) the disclosure of which is incorporated by reference for the teaching of the assay.
Synovial tissue was obtained from rheumatoid arthritis patients undergoing knee replacement surgery. […] Subsequently, the cells were washed 3 times with RPMI 1640 culture medium and resuspended in complete medium (RPMI 1640 culture medium supplemented with 5% FBS and 5% human serum-AB+(Sigma, USA) at a concentration of 1×10^6 cells/mL. The viability of synovial cells was determined by trypan blue dye exclusion and was uniformly ≧98%. For the experiment, 100 μL of cell suspension was added to the wells of a 96-well culture plate (Nunc, USA). Following cell plating, 100 μL of the culture medium and 1 μL of various concentrations of the test compound (test compound was dissolved in DMSO to obtain a stock solution of 20 mM. […] The IC50 values were calculated by a nonlinear regression method using the GraphPad software (Prism 3.03).

[1] = Human monocytes, 3 h, ± SE, N = 3

## C/C=C/C(O)C(C)/C=C/C(=N\O)C(C)C(O)C(C)C1OC(=O)/C(OC)=C/C(C)=C/C(C)C(O)C(CC)C(O)C(C)C/C(C)=C/C=C/C1OC (centres unmarked) [Compound of example 7, (3Z,5E,13E,15E)-18-((5Z,6E,10E)-3,9-Dihydroxy-5-(hydroxymino)-4,8-dimethyldodeca-6,10-dien-2-yl)-9-ethyl-8,10-dihydroxy-3,17-dimethoxy-5,7,11,13-tetramethyl oxacyclooctadeca-3,5,13,15-tetraen-2-one]
cMyc; [1]
  cMyc gene expression: −1.9 + 1.7 log fold change
cMyc; Synovial cells, 12 h, N = 1
  cMyc gene expression: −0.5 log fold change
cMyc; THP-1 cells, 12 h, ± SE, N = 3
  cMyc gene expression: −1.1 log fold change
IL-6; [1]
  IL-6 gene expression: −1.1 + 1.0 log fold change
IL-6; Synovial cells, 12 h, N = 1
  IL-6 gene expression: −4.0 log fold change
IL-6; THP-1 cells, 12 h, ± SE, N = 3
  IL-6 gene expression: −1.5 + 1.0 log fold change
p38 MAPK
  inhibition of p38 MAP kinase: did not inhibit
TNF-α
  IC50: 19 µM
